Laboratory results from patent US20110250135A1, “Piperazine Derivatives for Binding and Imaging Amyloid Plaques and Their Use” (Bayer Schering Pharma Aktiengesellschaft, priority 2008, published 2011).

Tests used:
Aβ plaques = molecular target: T1, Aβ plaques (Homo sapiens, UniProt P05067); test: Autoradiographical analysis of binding to cryosections from cortex of AD patients and controls; details: F-18 labeled compound; Alzheimer's disease patients (AD) vs controls without Aβ plaques
T1 construct: controls without Aβ plaques; from tissue; host or cells: frontal lobe / cortex sections (frozen and paraffin) from AD patients, FTD patients and age-matched controls
Method in brief: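 Frozen (18 μm) and deparaffinized paraffin (6 μm) frontal-lobe sections from Alzheimer's, frontotemporal dementia and age-matched control brains were incubated 1.5 h at room temperature with F-18 test compound at 10 Bq/μl in 25 mM Hepes pH 7.4, 0.1% BSA. Blocking used 1000-fold excess unlabeled compound; phosphoimager readout.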

[1] = Biodistribution: organ distribution of F-18 signal in mice; assay type: in vivo, male NMRI mice; details: for Organ distribution of F-18 signal, intestine: intestine (with content); for Organ distribution of F-18 signal, stomach: stomach (without content)
Method in brief: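 Male NMRI mice (~30 g, 3 per time point) received ca. 150 kBq of the test compound i.v. via tail vein. At 2, 5, 30, 60 and 240 min, urine and feces were collected and organs and tissues taken for gamma counting. Values are decay-corrected % ID/g ± SD.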

T1 sequence (P05067 672-713 limits assumed): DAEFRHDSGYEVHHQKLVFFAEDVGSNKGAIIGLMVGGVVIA

O=C(NCC(=O)N1CCN(c2ccc(OCc3ccccc3)cn2)CC1)c1ccnc([18F])c1 [Example 14f, [^18F]-N-(2-{4-[5-(benzyloxy)pyridin-2-yl]piperazin-1-yl}-2-oxoethyl)-2-fluoropyridine-4carboxamide]
autoradiographical analysis of binding to cryosections from cortex (Aβ plaques): Specific binding in plaque-rich regions of AD samples
Organ distribution of F-18 signal, adrenals ([1]; 2 min post i.v. injection): 16.31 % ID/g
Organ distribution of F-18 signal, adrenals ([1]; 5 min post i.v. injection): 6.14 % ID/g
Organ distribution of F-18 signal, adrenals ([1]; 30 min post i.v. injection): 1.57 % ID/g
Organ distribution of F-18 signal, adrenals ([1]; 60 min post i.v. injection): 1.35 % ID/g
Organ distribution of F-18 signal, adrenals ([1]; 240 min post i.v. injection): 0.23 % ID/g
Organ distribution of F-18 signal, blood ([1]; 2 min post i.v. injection): 2.05 % ID/g
Organ distribution of F-18 signal, blood ([1]; 5 min post i.v. injection): 2.36 % ID/g
Organ distribution of F-18 signal, blood ([1]; 30 min post i.v. injection): 1.30 % ID/g
Organ distribution of F-18 signal, blood ([1]; 60 min post i.v. injection): 0.33 % ID/g
Organ distribution of F-18 signal, blood ([1]; 240 min post i.v. injection): 0.08 % ID/g
Organ distribution of F-18 signal, brain ([1]; 2 min post i.v. injection): 3.87 % ID/g
Organ distribution of F-18 signal, brain ([1]; 5 min post i.v. injection): 3.14 % ID/g
Organ distribution of F-18 signal, brain ([1]; 30 min post i.v. injection): 0.52 % ID/g
Organ distribution of F-18 signal, brain ([1]; 60 min post i.v. injection): 0.13 % ID/g
Organ distribution of F-18 signal, brain ([1]; 240 min post i.v. injection): 0.02 % ID/g
Organ distribution of F-18 signal, fat ([1]; 2 min post i.v. injection): 1.05 % ID/g
Organ distribution of F-18 signal, fat ([1]; 5 min post i.v. injection): 2.17 % ID/g
Organ distribution of F-18 signal, fat ([1]; 30 min post i.v. injection): 1.02 % ID/g
Organ distribution of F-18 signal, fat ([1]; 60 min post i.v. injection): 0.59 % ID/g
Organ distribution of F-18 signal, fat ([1]; 240 min post i.v. injection): 0.02 % ID/g
Organ distribution of F-18 signal, femur ([1]; 2 min post i.v. injection): 1.44 % ID/g
Organ distribution of F-18 signal, femur ([1]; 5 min post i.v. injection): 1.38 % ID/g
Organ distribution of F-18 signal, femur ([1]; 30 min post i.v. injection): 0.55 % ID/g
Organ distribution of F-18 signal, femur ([1]; 60 min post i.v. injection): 0.24 % ID/g
Organ distribution of F-18 signal, femur ([1]; 240 min post i.v. injection): 0.13 % ID/g
Organ distribution of F-18 signal, heart ([1]; 2 min post i.v. injection): 3.67 % ID/g
Organ distribution of F-18 signal, heart ([1]; 5 min post i.v. injection): 3.81 % ID/g
Organ distribution of F-18 signal, heart ([1]; 30 min post i.v. injection): 0.93 % ID/g
Organ distribution of F-18 signal, heart ([1]; 60 min post i.v. injection): 0.20 % ID/g
Organ distribution of F-18 signal, heart ([1]; 240 min post i.v. injection): 0.06 % ID/g
Organ distribution of F-18 signal, intestine ([1]; 2 min post i.v. injection): 2.27 % ID/g
Organ distribution of F-18 signal, intestine ([1]; 5 min post i.v. injection): 2.90 % ID/g
Organ distribution of F-18 signal, intestine ([1]; 30 min post i.v. injection): 11.37 % ID/g
Organ distribution of F-18 signal, intestine ([1]; 60 min post i.v. injection): 13.11 % ID/g
Organ distribution of F-18 signal, intestine ([1]; 240 min post i.v. injection): 13.53 % ID/g
Organ distribution of F-18 signal, kidney ([1]; 2 min post i.v. injection): 7.60 % ID/g
Organ distribution of F-18 signal, kidney ([1]; 5 min post i.v. injection): 8.59 % ID/g
Organ distribution of F-18 signal, kidney ([1]; 30 min post i.v. injection): 7.84 % ID/g
Organ distribution of F-18 signal, kidney ([1]; 60 min post i.v. injection): 2.86 % ID/g
Organ distribution of F-18 signal, kidney ([1]; 240 min post i.v. injection): 0.79 % ID/g
Organ distribution of F-18 signal, liver ([1]; 2 min post i.v. injection): 8.19 % ID/g
Organ distribution of F-18 signal, liver ([1]; 5 min post i.v. injection): 13.46 % ID/g
Organ distribution of F-18 signal, liver ([1]; 30 min post i.v. injection): 5.20 % ID/g
Organ distribution of F-18 signal, liver ([1]; 60 min post i.v. injection): 1.87 % ID/g
Organ distribution of F-18 signal, liver ([1]; 240 min post i.v. injection): 0.90 % ID/g
Organ distribution of F-18 signal, lung ([1]; 2 min post i.v. injection): 3.63 % ID/g
Organ distribution of F-18 signal, lung ([1]; 5 min post i.v. injection): 3.93 % ID/g
Organ distribution of F-18 signal, lung ([1]; 30 min post i.v. injection): 1.27 % ID/g
Organ distribution of F-18 signal, lung ([1]; 60 min post i.v. injection): 0.42 % ID/g
Organ distribution of F-18 signal, lung ([1]; 240 min post i.v. injection): 0.12 % ID/g
Organ distribution of F-18 signal, muscle ([1]; 2 min post i.v. injection): 1.94 % ID/g
Organ distribution of F-18 signal, muscle ([1]; 5 min post i.v. injection): 2.14 % ID/g
Organ distribution of F-18 signal, muscle ([1]; 30 min post i.v. injection): 0.62 % ID/g
Organ distribution of F-18 signal, muscle ([1]; 60 min post i.v. injection): 0.26 % ID/g
Organ distribution of F-18 signal, muscle ([1]; 240 min post i.v. injection): 0.03 % ID/g
Organ distribution of F-18 signal, pancreas ([1]; 2 min post i.v. injection): 4.49 % ID/g
Organ distribution of F-18 signal, pancreas ([1]; 5 min post i.v. injection): 4.49 % ID/g
Organ distribution of F-18 signal, pancreas ([1]; 30 min post i.v. injection): 1.64 % ID/g
Organ distribution of F-18 signal, pancreas ([1]; 60 min post i.v. injection): 0.32 % ID/g
Organ distribution of F-18 signal, pancreas ([1]; 240 min post i.v. injection): 0.11 % ID/g
Organ distribution of F-18 signal, skin ([1]; 2 min post i.v. injection): 1.12 % ID/g
Organ distribution of F-18 signal, skin ([1]; 5 min post i.v. injection): 1.84 % ID/g
Organ distribution of F-18 signal, skin ([1]; 30 min post i.v. injection): 1.17 % ID/g
Organ distribution of F-18 signal, skin ([1]; 60 min post i.v. injection): 0.43 % ID/g
Organ distribution of F-18 signal, skin ([1]; 240 min post i.v. injection): 0.06 % ID/g
Organ distribution of F-18 signal, spleen ([1]; 2 min post i.v. injection): 1.67 % ID/g
Organ distribution of F-18 signal, spleen ([1]; 5 min post i.v. injection): 2.25 % ID/g
Organ distribution of F-18 signal, spleen ([1]; 30 min post i.v. injection): 0.78 % ID/g
Organ distribution of F-18 signal, spleen ([1]; 60 min post i.v. injection): 0.12 % ID/g
Organ distribution of F-18 signal, spleen ([1]; 240 min post i.v. injection): 0.04 % ID/g
Organ distribution of F-18 signal, stomach ([1]; 2 min post i.v. injection): 3.81 % ID/g
Organ distribution of F-18 signal, stomach ([1]; 5 min post i.v. injection): 3.68 % ID/g
Organ distribution of F-18 signal, stomach ([1]; 30 min post i.v. injection): 2.88 % ID/g
Organ distribution of F-18 signal, stomach ([1]; 60 min post i.v. injection): 2.07 % ID/g
Organ distribution of F-18 signal, stomach ([1]; 240 min post i.v. injection): 0.46 % ID/g
Organ distribution of F-18 signal, tail ([1]; 2 min post i.v. injection): 5.14 % ID/g
Organ distribution of F-18 signal, tail ([1]; 5 min post i.v. injection): 4.06 % ID/g
Organ distribution of F-18 signal, tail ([1]; 30 min post i.v. injection): 2.28 % ID/g
Organ distribution of F-18 signal, tail ([1]; 60 min post i.v. injection): 0.67 % ID/g
Organ distribution of F-18 signal, tail ([1]; 240 min post i.v. injection): 0.31 % ID/g
Organ distribution of F-18 signal, testicle ([1]; 2 min post i.v. injection): 1.42 % ID/g
Organ distribution of F-18 signal, testicle ([1]; 5 min post i.v. injection): 1.73 % ID/g
Organ distribution of F-18 signal, testicle ([1]; 30 min post i.v. injection): 0.79 % ID/g
Organ distribution of F-18 signal, testicle ([1]; 60 min post i.v. injection): 0.27 % ID/g
Organ distribution of F-18 signal, testicle ([1]; 240 min post i.v. injection): 0.04 % ID/g
Organ distribution of F-18 signal, thyroid ([1]; 2 min post i.v. injection): 3.00 % ID/g
Organ distribution of F-18 signal, thyroid ([1]; 5 min post i.v. injection): 2.94 % ID/g
Organ distribution of F-18 signal, thyroid ([1]; 30 min post i.v. injection): 0.94 % ID/g
Organ distribution of F-18 signal, thyroid ([1]; 60 min post i.v. injection): 0.30 % ID/g
Organ distribution of F-18 signal, thyroid ([1]; 240 min post i.v. injection): 0.16 % ID/g
